Broadly, the DC50 is the concentration at which degradation of the target reaches its halfway point.

One test addresses T1, ER (Homo sapiens, UniProt P03372).
T1 construct: host or cells: T47D and MCF7 human breast cancer cells
T1 sequence (P03372 1-595): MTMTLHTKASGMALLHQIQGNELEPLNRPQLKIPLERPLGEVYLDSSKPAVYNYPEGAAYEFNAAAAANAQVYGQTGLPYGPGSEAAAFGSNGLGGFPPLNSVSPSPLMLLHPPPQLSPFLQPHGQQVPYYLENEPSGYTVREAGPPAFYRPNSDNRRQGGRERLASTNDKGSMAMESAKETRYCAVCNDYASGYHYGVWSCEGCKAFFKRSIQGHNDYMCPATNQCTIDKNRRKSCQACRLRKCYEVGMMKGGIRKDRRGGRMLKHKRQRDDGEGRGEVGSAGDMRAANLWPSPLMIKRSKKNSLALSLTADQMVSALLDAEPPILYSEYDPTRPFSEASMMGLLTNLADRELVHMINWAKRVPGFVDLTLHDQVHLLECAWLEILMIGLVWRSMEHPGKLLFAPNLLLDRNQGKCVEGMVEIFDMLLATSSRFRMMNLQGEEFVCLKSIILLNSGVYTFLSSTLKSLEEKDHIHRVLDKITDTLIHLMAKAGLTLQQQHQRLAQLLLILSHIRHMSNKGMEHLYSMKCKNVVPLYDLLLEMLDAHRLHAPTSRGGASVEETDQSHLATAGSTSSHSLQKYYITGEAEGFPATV
The test can be described thus: ER degradation activity, in-cell western blot analysis in T47D cells. The class given is cell-based. Particulars: 16 hours, Table A does not say which cell line (T47D or MCF7), read-out: Potency (DC50). Summed up:
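Cells were seeded overnight, exposed to diluted compounds for 16 hours, then stained with primary antibodies and with infrared-labelled secondary antibodies (1:1000, 1 h RT). Plates were scanned on a CLX reader, and ER levels were normalised to DMSO-treated wells.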
On to `C[C@@H]1Cc2c([nH]c3ccccc23)[C@@H](c2c(F)cc(N3CC(F)(C(=O)N4CCC(CN5Cc6cc7c(cc6C5)C(=O)N(C5CCC(=O)NC5=O)C7=O)CC4)C3)cc2F)N1CC(F)F` (stereo partly drawn) [E 209, 6-((1-(1-(4-((1R,3R)-2-(2,2-difluoroethyl)-3-methyl-2,3,4,9-tetrahydro-1H-pyrido[3,4-b]indol-1-yl)-3,5-difluorophenyl)-3-fluoroazetidine-3-carbonyl)piperidin-4-yl)methyl)-2-(2,6-dioxopiperidin-3-yl)-6,7-dihydropyrrolo[3,4-f]isoindole-1,3(2H,5H)-dione], for which the DC50 was in the range of 10 to 100 nM. The same measure, in the same setting: the value for `O=C1CCC(N2C(=O)c3cc4c(cc3C2=O)CN(C(=O)CN2CC3(CCN(c5ccc([C@@H]6c7ccc(O)cc7CC[C@@H]6c6ccccc6)cc5)CC3)C2)C4)C(=O)N1` (mixture of isomers) [E 125, Rac-2-(2,6-dioxopiperidin-3-yl)-6-(2-(7-(4-((1R,2S)-6-hydroxy-2-phenyl-1,2,3,4-tetrahydronaphthalen-1-yl)phenyl)-2,7-diazaspiro[3.5]nonan-2-yl)acetyl)-6,7-dihydropyrrolo[3,4-f]isoindole-1,3(2H,5H)-dione] was 10 to 100 nM; that for `C[C@@H]1Cc2c([nH]c3ccccc23)[C@@H](c2c(F)cc(N3CC(C(=O)N4CCC(CN5Cc6cc7c(cc6C5)C(=O)N(C5CCC(=O)NC5=O)C7=O)CC4)C3)cc2F)N1CC(F)F` (stereo partly drawn) [E 237, 6-((1-(1-(4-((1R,3R)-2-(2,2-difluoroethyl)-3-methyl-2,3,4,9-tetrahydro-1H-pyrido[3,4-b]indol-1-yl)-3,5-difluorophenyl)azetidine-3-carbonyl)piperidin-4-yl)methyl)-2-(2,6-dioxopiperidin-3-yl)-6,7-dihydropyrrolo[3,4-f]isoindole-1,3(2H,5H)-dione] was > 100 nM. For the molecule `C[C@@H]1Cc2cc(O)ccc2[C@@H](c2c(F)cc(N3CC4(CCN(C(=O)CN5Cc6cc7c(cc6C5)C(=O)N(C5CCC(=O)NC5=O)C7=O)C4)C3)cc2F)N1CC(F)F` (stereo partly drawn) [E 43, 6-(2-(2-(4-((1S,3R)-2-(2,2-difluoroethyl)-6-hydroxy-3-methyl-1,2,3,4-tetrahydroisoquinolin-1-yl)-3,5-difluorophenyl)-2,6-diazaspiro[3.4]octan-6-yl)-2-oxoethyl)-2-(2,6-dioxopiperidin-3-yl)-6,7-dihydropyrrolo[3,4-f]isoindole-1,3(2H,5H)-dione], the half-maximal degradation concentration (DC50) was < 10 nM. Take `C[C@@H]1Cc2c([nH]c3ccccc23)[C@@H](c2cnc(C3=CCC(C(=O)N4CCC(N5Cc6cc7c(cc6C5)C(=O)N(C5CCC(=O)NC5=O)C7=O)CC4)CC3)nc2)N1CC(F)F` (stereo partly drawn) [E 315, 6-(1-(4-(5-((1R,3R)-2-(2,2-difluoroethyl)-3-methyl-2,3,4,9-tetrahydro-1H-pyrido[3,4-b]indol-1-yl)pyrimidin-2-yl)cyclohex-3-ene-1-carbonyl)piperidin-4-yl)-2-(2,6-dioxopiperidin-3-yl)-6,7-dihydropyrrolo[3,4-f]isoindole-1,3(2H,5H)-dione]: the DC50 was > 100 nM.

Turning to `C[C@@H]1Cc2c([nH]c3ccccc23)[C@@H](c2ccc(N3CCC4(CCN(C(=O)CN5Cc6cc7c(cc6C5)C(=O)N(C5CCC(=O)NC5=O)C7=O)CC4)CC3)cc2)N1CC(F)F` (stereo partly drawn) [E 265, 6-(2-(9-(4-((1R,3R)-2-(2,2-difluoroethyl)-3-methyl-2,3,4,9-tetrahydro-1H-pyrido[3,4-b]indol-1-yl)phenyl)-3,9-diazaspiro[5.5]undecan-3-yl)-2-oxoethyl)-2-(2,6-dioxopiperidin-3-yl)-6,7-dihydropyrrolo[3,4-f]isoindole-1,3(2H,5H)-dione], the half-maximal degradation concentration (DC50) fell in the range of 10 to 100 nM.

As to `O=C1CCC(N2C(=O)c3cc4c(cc3C2=O)CN([C@H]2CC[C@H](NC3CN(c5ccc([C@@H]6c7ccc(O)cc7CC[C@@H]6c6ccccc6)cc5)C3)CC2)C4)C(=O)N1` (stereo partly drawn) [E 341, 2-(2,6-dioxopiperidin-3-yl)-6-((1R,4r)-4-((1-(4-((1R,2S)-6-hydroxy-2-phenyl-1,2,3,4-tetrahydronaphthalen-1-yl)phenyl)azetidin-3-yl)amino)cyclohexyl)-6,7-dihydropyrrolo[3,4-f]isoindole-1,3(2H,5H)-dione], the DC50 was > 100 nM. Consider `C[C@@H]1Cc2c([nH]c3ccccc23)[C@@H](c2c(F)cc(N3CCC(CN4CCC(C(=O)N5Cc6cc7c(cc6C5)C(=O)N(C5CCC(=O)NC5=O)C7=O)CC4)CC3)cc2F)N1CC(F)F` (stereo partly drawn) [E 238, 6-(1-((1-(4-((1R,3R)-2-(2,2-difluoroethyl)-3-methyl-2,3,4,9-tetrahydro-1H-pyrido[3,4-b]indol-1-yl)-3,5-difluorophenyl)piperidin-4-yl)methyl)piperidine-4-carbonyl)-2-(2,6-dioxopiperidin-3-yl)-6,7-dihydropyrrolo[3,4-f]isoindole-1,3(2H,5H)-dione], for which the DC50 is > 100 nM. As for `O=C1CCC(N2C(=O)c3cc4c(cc3C2=O)CN(C(=O)CN2CCC3(CC2)CC(Oc2ccc([C@@H]5c6ccc(O)cc6CC[C@@H]5c5ccccc5)cc2)C3)C4)C(=O)N1` (stereo partly drawn) [E 222, 2-(2,6-dioxopiperidin-3-yl)-6-(2-(2-(4-((1R,2S)-6-hydroxy-2-phenyl-1,2,3,4-tetrahydronaphthalen-1-yl)phenoxy)-7-azaspiro[3.5]nonan-7-yl)acetyl)-6,7-dihydropyrrolo[3,4-f]isoindole-1,3(2H,5H)-dione], the DC50 is > 100 nM.

Consider `O=C1CCC(N2C(=O)c3cc4c(cc3C2=O)CN([C@H]2CC[C@H](C(=O)N3CC(Nc5ccc([C@H]6c7ccc(O)cc7CC[C@H]6c6ccccc6)cc5)C3)CC2)C4)C(=O)N1` (stereo partly drawn) [E 387, 2-(2,6-dioxopiperidin-3-yl)-6-((1S,4r)-4-(3-((4-((1S,2R)-6-hydroxy-2-phenyl-1,2,3,4-tetrahydronaphthalen-1-yl)phenyl)amino)azetidine-1-carbonyl)cyclohexyl)-6,7-dihydropyrrolo[3,4-f]isoindole-1,3(2H,5H)-dione], for which the DC50 is < 10 nM. The same measure, in the same setting: in the case of `C[C@@H]1Cc2c([nH]c3ccccc23)[C@@H](c2c(F)cc(N3CCC(N4CCC(CC(=O)N5Cc6cc7c(cc6C5)C(=O)N(C5CCC(=O)NC5=O)C7=O)CC4)CC3)cc2F)N1CC(F)F` (stereo partly drawn) [E 93, 6-(2-(1′-(4-((1R,3R)-2-(2,2-difluoroethyl)-3-methyl-2,3,4,9-tetrahydro-1H-pyrido[3,4-b]indol-1-yl)-3,5-difluorophenyl)-[1,4′-bipiperidin]-4-yl)acetyl)-2-(2,6-dioxopiperidin-3-yl)-6,7-dihydropyrrolo[3,4-f]isoindole-1,3(2H,5H)-dione] it was < 10 nM. As to `O=C1CCC(N2C(=O)c3cc4c(cc3C2=O)CN(CC(=O)N2CC3(CCN(c5ccc([C@@H]6c7ccc(O)cc7CC[C@@H]6c6ccc(F)cc6)cc5)CC3)C2)CC4)C(=O)N1` (mixture of isomers) [E 164, rac-2-(2,6-dioxopiperidin-3-yl)-6-(2-(7-(4-((1R,2S)-2-(4-fluorophenyl)-6-hydroxy-1,2,3,4-tetrahydronaphthalen-1-yl)phenyl)-2,7-diazaspiro[3.5]nonan-2-yl)-2-oxoethyl)-5,6,7,8-tetrahydro-1H-pyrrolo[3,4-g]isoquinoline-1,3(2H)-dione], the DC50 was in the range of 10 to 100 nM. Turning to `C[C@@H]1Cc2cc(O)ccc2[C@@H](c2c(F)cc(N3CCC(N4CCC(C(=O)N5Cc6cc7c(cc6C5)C(=O)N(C5CCC(=O)NC5=O)C7=O)CC4)CC3)cc2F)N1CC(C)(F)F` (stereo partly drawn) [E 29, 6-(1′-(4-((1S,3R)-2-(2,2-difluoropropyl)-6-hydroxy-3-methyl-1,2,3,4-tetrahydroisoquinolin-1-yl)-3,5-difluorophenyl)-[1,4′-bipiperidine]-4-carbonyl)-2-(2,6-dioxopiperidin-3-yl)-6,7-dihydropyrrolo[3,4-f]isoindole-1,3(2H,5H)-dione], the DC50 is > 100 nM. On the same count and under the same terms, in the case of `O=C1CCC(N2C(=O)c3cc4c(cc3C2=O)CN(CC(=O)N2CCC3(CC2)CCN(c2ccc(C(=C(CCCl)c5ccccc5)c5ccc(B(O)O)cc5)cc2)CC3)C4)C(=O)N1` (stereo not drawn) [E 197, (4-(4-chloro-1-(4-(9-(2-(6-(2,6-dioxopiperidin-3-yl)-5,7-dioxo-3,5,6,7-tetrahydropyrrolo[3,4-f]isoindol-2(1H)-yl)acetyl)-3,9-diazaspiro[5.5]undecan-3-yl)phenyl)-2-phenylbut-1-en-1-yl)phenyl)boronic acid] it was 10 to 100 nM.

The test is the same for the next values; noted with them: compounds 16 hours, Table A does not say whether T47D or MCF7, read-out: Potency (DC50).
Take `C[C@@H]1Cc2c([nH]c3ccccc23)[C@@H](c2ccc(C3CCC4(CC3)CCN(C(=O)CN3Cc5cc6c(cc5C3)C(=O)N(C3CCC(=O)NC3=O)C6=O)CC4)cc2F)N1CC(F)F` (stereo partly drawn) [E 479, 6-(2-(9-(4-((1R,3R)-2-(2,2-difluoroethyl)-3-methyl-2,3,4,9-tetrahydro-1H-pyrido[3,4-b]indol-1-yl)-3-fluorophenyl)-3-azaspiro[5.5]undecan-3-yl)-2-oxoethyl)-2-(2,6-dioxopiperidin-3-yl)-6,7-dihydropyrrolo[3,4-f]isoindole-1,3(2H,5H)-dione]: the DC50 was > 100 nM.

The record behind these values is patent publication US20240190880A1 (THE REGENTS OF THE UNIVERSITY OF MICHIGAN, priority 2021, published 2024).
